Experimental data reported in PubChem BioAssay (NCI).
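Five compound concentrations were applied to cells in 96-well plates for 48 hours; endpoints were derived by simple linear interpolation of the resulting dose-response curve. The concentration for 50% growth inhibition is given as GI50. TGI is the concentration that stops growth completely.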

Experiments:
Assay in all cases: NCI-60 cell line screen, 48 h
[1] = test system: NCI-H460 lung
[2] = test system: RPMI-8226 leukemia
[3] = test system: SK-OV-3 ovarian
[4] = test system: UACC-62 melanoma
[5] = test system: UO-31 renal
[6] = test system: OVCAR-3 ovarian
[7] = test system: HS 578T breast
[8] = test system: IGROV1 ovarian
[9] = test system: SNB-19 CNS
[10] = test system: MDA-MB-435
[11] = test system: DU-145 prostate
[12] = test system: SF-268 CNS
[13] = test system: SW-620 colon
[14] = test system: PC-3 prostate
[15] = test system: KM12 colon
[16] = test system: M14 melanoma
[17] = test system: A549 NSCLC
[18] = test system: SN12C renal
[19] = test system: OVCAR-5 ovarian
[20] = test system: HCT-15 colon
[21] = test system: TK-10 renal
[22] = test system: NCI-H23 lung
[23] = test system: COLO 205 colon
[24] = test system: SK-MEL-2 melanoma
[25] = test system: K-562 leukemia
[26] = test system: SF-295 CNS
[27] = test system: UACC-257 melanoma
[28] = test system: A498 renal
[29] = test system: MDA-MB-231 breast
[30] = test system: MALME-3M melanoma
[31] = test system: HOP-62 NSCLC
[32] = test system: HCT-116 colon
[33] = test system: SK-MEL-5 melanoma
[34] = test system: HOP-92 NSCLC
[35] = test system: HT29 colon
[36] = test system: HL-60(TB) leukemia
[37] = test system: LOX IMVI melanoma
[38] = test system: OVCAR-4 ovarian
[39] = test system: CCRF-CEM leukemia
[40] = test system: MOLT-4 leukemia
[41] = test system: RXF 393 renal
[42] = test system: BT-549 breast
[43] = test system: MCF7 breast
[44] = test system: SNB-75 CNS
[45] = test system: T-47D breast
[46] = test system: NCI/ADR-RES ovarian
[47] = test system: OVCAR-8 ovarian
[48] = test system: EKVX NSCLC
[49] = test system: NCI-H522 lung
[50] = test system: U251 CNS
[51] = test system: SF-539 CNS
[52] = test system: SK-MEL-28 melanoma
[53] = test system: ACHN renal
[54] = test system: HCC-2998 colon
[55] = test system: NCI-H226 lung
[56] = test system: 786-0 renal
[57] = test system: SR leukemia

Work on O=c1cc(N2CCOCC2)oc2c(-c3ccc4c(c3)OCCO4)csc12 yielded a GI50 [1] of 658 nM, a TGI [1] of 14200 nM and a GI50 [2] of 439 nM. The TGI [2] was 4660 nM, the GI50 [3] was 272 nM and the TGI [3] was 1200 nM. The GI50 [4] was 325 nM, the TGI [4] was 2060 nM and the GI50 [5] was 167 nM. It also gave a TGI [5] of 1790 nM, a GI50 [6] of 526 nM and a TGI [6] of 11300 nM. For the same molecule, the GI50 [7] was 221 nM, the TGI [7] was 1400 nM and the GI50 [8] was 262 nM. The TGI [8] was 1470 nM, the GI50 [9] was 1180 nM and the TGI [9] was 42800 nM. The GI50 [10] was 428 nM, the TGI [10] was 33600 nM and the GI50 [11] was 730 nM. For the same molecule, the TGI [11] was greater than 100000 nM, the GI50 [12] was 687 nM and the TGI [12] was 21600 nM. It also gave a GI50 [13] of 978 nM, a TGI [13] of 16300 nM and a GI50 [14] of 319 nM. The TGI [14] was greater than 80200 nM, the GI50 [15] was 1080 nM and the TGI [15] was greater than 38600 nM. It also gave a GI50 [16] of 451 nM, a TGI [16] of 4860 nM and a GI50 [17] of 583 nM. For the same molecule, the TGI [17] was 10500 nM, the GI50 [18] was 484 nM and the TGI [18] was greater than 100000 nM. The GI50 [19] was 445 nM, the TGI [19] was greater than 62900 nM and the GI50 [20] was 471 nM. It also gave a TGI [20] greater than 40800 nM, a GI50 [21] of 257 nM and a TGI [21] of 1290 nM. It also gave a GI50 [22] of 760 nM, a TGI [22] of 17300 nM and a GI50 [23] of 417 nM. For the same molecule, the TGI [23] was 2740 nM, the GI50 [24] was 798 nM and the TGI [24] was 5030 nM. The GI50 [25] was 1170 nM, the TGI [25] was greater than 100000 nM and the GI50 [26] was 307 nM. For the same molecule, the TGI [26] was 3670 nM, the GI50 [27] was 608 nM and the TGI [27] was 7950 nM. It also gave a GI50 [28] of 102 nM, a TGI [28] of 662 nM and a GI50 [29] of 382 nM. The TGI [29] was 14500 nM, the GI50 [30] was 224 nM and the TGI [30] was 1800 nM. It also gave a GI50 [31] of 302 nM, a TGI [31] of 5330 nM and a GI50 [32] of 775 nM. The TGI [32] was 11100 nM, the GI50 [33] was 590 nM and the TGI [33] was 2160 nM. For the same molecule, the GI50 [34] was 214 nM, the TGI [34] was 2560 nM and the GI50 [35] was 379 nM. It also gave a TGI [35] of 12200 nM, a GI50 [36] of 298 nM and a TGI [36] of 2890 nM. The GI50 [37] was 425 nM, the TGI [37] was 2820 nM and the GI50 [38] was 413 nM. The TGI [38] was greater than 61900 nM, the GI50 [39] was 1490 nM and the TGI [39] was greater than 61900 nM. For the same molecule, the GI50 [40] was 628 nM, the TGI [40] was 6240 nM and the GI50 [41] was 405 nM. The TGI [41] was 3480 nM, the GI50 [42] was 332 nM and the TGI [42] was 4100 nM. The GI50 [43] was 284 nM, the TGI [43] was 11300 nM and the GI50 [44] was 127 nM. For the same molecule, the TGI [44] was 765 nM, the GI50 [45] was 167 nM and the TGI [45] was 643 nM. For the same molecule, the GI50 [46] was 590 nM, the TGI [46] was 19700 nM and the GI50 [47] was 498 nM. It also gave a TGI [47] of 12000 nM, a GI50 [48] of 333 nM and a TGI [48] of 6150 nM. The GI50 [49] was 282 nM, the TGI [49] was 4160 nM and the GI50 [50] was 1080 nM. The TGI [50] was 35000 nM, the GI50 [51] was 425 nM and the TGI [51] was 3610 nM. The GI50 [52] was 579 nM, the TGI [52] was 11400 nM and the GI50 [53] was 339 nM. The TGI [53] was 10700 nM, the GI50 [54] was 746 nM and the TGI [54] was 8790 nM. The GI50 [55] was 492 nM, the TGI [55] was 11700 nM and the GI50 [56] was 352 nM. It also gave a TGI [56] of 6310 nM, a GI50 [57] of 519 nM and a TGI [57] of 8570 nM.
